Patent US20260364184A1, “COMPOUND BASED ON OXOISOINDOLINYL-SUBSTITUTED TETRAHYDROPYRIMIDINE-DIONE AND USE THEREOF” (GLUETACS THERAPEUTICS (SHANGHAI) CO., LTD., priority 2023, published 2026)

Tests used:
[1] = tested on: Human large cell immunoblastic lymphoma cell line SR; assay: Inhibition of SR cell proliferation (CellTiter luminescent viability); format: cell-based; settings: Table IB1, ALK inhibitor-based, 96 hours, read-out: Inhibitory activity (IC50, nM) on tumor cell proliferation, SR
Method: The tumor cells used herein were cultured in a cell culture medium listed in table 3 at 37 °C in an incubator with 5% CO2. Prior to experimentation, all cell lines used were correctly identified by STR profiling, and tested negative for mycoplasma contamination using a mycoplasma detection kit through routine screenings.
The IC50 values of the compounds of the present disclosure (including the compounds in Table 1, Table 2, and Examples 1-468) were determined using the CellTiter-Meiluncell Luminescent Cell Viability Assay Kit from Dalian Meilun Biotech Co., Ltd. The detailed procedure is as follows: Tumor cells were seeded in 96-well cell culture plates at the densities specified in Table 4. On the following day, the test compounds of the present disclosure were subjected to serial dilution. The dilution can be performed according to one of the following two methods: • (1) The first dilution method: The test compounds of the present disclosure (including the compounds in Table 1, Table 2, and Examples 1-468) were subjected to 5-fold serial dilutions starting from a highest concentration of 2000 μM, resulting in a total of 9 concentrations from high to low (2000, 400, 80, 16, 3.2, 0.64, 0.128, 0.0256, 0.00512 μM). Subsequently, 0.5 μL of the test compound dilution was transferred into the 96-well plate containing the cells, with each well containing 100 μL of cell culture medium. […] Into the 96-well plate, the diluted test compounds and corresponding detection reagents were added, resulting in final test compound concentrations of 500 nM and 10 nM, respectively. The experimental procedure is described below using the diluted 2 μM test compound as an example.
0.5 μL of the aforementioned diluted compound of the present disclosure (including the compounds in Table 1, Table 2, and Examples 1-468) was added to the seeded cells in 100 μL of medium, yielding a final test compound concentration of 10 nM. After the cells were treated with the compounds of the present disclosure for a specified period, the cell viability assay reagent was added to the culture medium according to the kit's instructions to determine cell viability. […] All controls were treated using the same procedure as the compounds of the present disclosure. The growth inhibition curves for the compounds of the present disclosure were plotted using Prism GraphPad software, and the IC50 values were calculated therefrom.

[2] = biological target: T1, ALK (Homo sapiens, UniProt Q9UM73); assay: Western blot degradation of ALK; format: cell-based; settings: H2228 Cell; 24 hours
T1 construct: known EML4-ALK variant 3 fusion, ALK kinase part unmutated), Western blot
T1 sequence (Q9UM73 19-1620): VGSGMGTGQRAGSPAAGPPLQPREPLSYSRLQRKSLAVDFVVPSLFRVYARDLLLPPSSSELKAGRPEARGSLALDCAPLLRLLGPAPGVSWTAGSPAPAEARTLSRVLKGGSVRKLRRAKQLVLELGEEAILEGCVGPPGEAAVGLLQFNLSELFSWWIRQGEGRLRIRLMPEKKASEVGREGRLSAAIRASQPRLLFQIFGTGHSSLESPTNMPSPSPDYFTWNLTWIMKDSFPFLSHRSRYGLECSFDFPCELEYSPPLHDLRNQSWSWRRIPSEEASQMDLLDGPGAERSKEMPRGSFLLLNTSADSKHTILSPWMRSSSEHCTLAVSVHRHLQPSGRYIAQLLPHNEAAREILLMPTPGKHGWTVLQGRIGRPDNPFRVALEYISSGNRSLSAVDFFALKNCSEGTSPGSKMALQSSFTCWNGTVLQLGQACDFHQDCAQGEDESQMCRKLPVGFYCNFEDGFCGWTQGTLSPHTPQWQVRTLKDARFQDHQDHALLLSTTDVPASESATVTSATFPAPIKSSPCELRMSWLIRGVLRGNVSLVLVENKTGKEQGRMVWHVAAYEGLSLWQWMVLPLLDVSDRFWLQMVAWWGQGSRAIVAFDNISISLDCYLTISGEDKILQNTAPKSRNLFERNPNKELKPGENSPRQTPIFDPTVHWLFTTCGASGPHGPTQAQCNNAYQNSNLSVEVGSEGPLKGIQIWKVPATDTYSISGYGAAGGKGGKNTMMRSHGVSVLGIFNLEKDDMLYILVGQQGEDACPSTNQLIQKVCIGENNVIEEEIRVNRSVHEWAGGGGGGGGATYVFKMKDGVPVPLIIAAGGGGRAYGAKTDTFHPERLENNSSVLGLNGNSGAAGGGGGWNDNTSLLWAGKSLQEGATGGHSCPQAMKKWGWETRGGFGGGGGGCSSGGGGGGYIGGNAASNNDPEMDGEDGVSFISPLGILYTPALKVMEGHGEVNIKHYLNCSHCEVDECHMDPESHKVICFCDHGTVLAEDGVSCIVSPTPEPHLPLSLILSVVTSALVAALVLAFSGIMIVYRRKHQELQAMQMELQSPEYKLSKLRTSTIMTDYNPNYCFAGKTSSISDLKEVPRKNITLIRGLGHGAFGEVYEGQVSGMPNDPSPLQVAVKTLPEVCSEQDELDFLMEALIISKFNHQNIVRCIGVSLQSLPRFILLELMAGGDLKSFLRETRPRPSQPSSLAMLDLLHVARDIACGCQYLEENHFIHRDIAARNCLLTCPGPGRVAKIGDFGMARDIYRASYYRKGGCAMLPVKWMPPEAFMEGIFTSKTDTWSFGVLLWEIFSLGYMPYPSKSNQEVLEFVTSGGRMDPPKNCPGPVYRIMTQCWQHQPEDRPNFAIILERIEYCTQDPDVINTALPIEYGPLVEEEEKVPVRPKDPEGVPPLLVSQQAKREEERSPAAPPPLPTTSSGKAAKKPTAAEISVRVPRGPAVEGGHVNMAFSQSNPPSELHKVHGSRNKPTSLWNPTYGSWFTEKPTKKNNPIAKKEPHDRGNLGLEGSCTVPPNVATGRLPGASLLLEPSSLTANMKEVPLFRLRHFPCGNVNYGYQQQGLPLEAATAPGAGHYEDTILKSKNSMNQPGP
T1 sequence (Q96SW2 whole entry partner, the tested form may be a part): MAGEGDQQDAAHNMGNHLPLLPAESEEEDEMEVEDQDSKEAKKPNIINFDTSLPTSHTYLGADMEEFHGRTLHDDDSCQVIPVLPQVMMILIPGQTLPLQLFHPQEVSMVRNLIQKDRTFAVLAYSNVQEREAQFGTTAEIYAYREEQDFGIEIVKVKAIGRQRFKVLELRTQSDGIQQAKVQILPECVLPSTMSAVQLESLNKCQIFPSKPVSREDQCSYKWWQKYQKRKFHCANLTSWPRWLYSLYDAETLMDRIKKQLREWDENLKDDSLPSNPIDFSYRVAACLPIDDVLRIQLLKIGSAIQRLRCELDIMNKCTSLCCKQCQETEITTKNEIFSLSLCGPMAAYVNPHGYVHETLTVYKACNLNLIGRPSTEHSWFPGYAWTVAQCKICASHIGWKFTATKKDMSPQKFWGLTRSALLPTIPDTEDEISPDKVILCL
Method: Conventional Western blot assay was performed to evaluate the effects of the compounds of the present disclosure on the expression of target proteins in cells.
(1) Cell Seeding and Protein Harvesting: The selected cells were processed according to the cell seeding procedure and protein harvesting procedure in Table II-2.
(2) To the collected supernatant, 5×SDS sample loading buffer was added, followed by denaturation at 95 °C for 5 minutes. The denatured samples were then separated by SDS-PAGE electrophoresis on a polyacrylamide gel. Proteins were transferred to a nitrocellulose membrane (0.45 μm NC membrane), blocked with blocking buffer at room temperature for 1 hour, and subjected to antibody incubation and development procedures according to the antibody manufacturer's instructions (Cell Signaling Technology).
Half-Maximal Degradation Concentration value (the drug concentration required for degrading proteins by 50%, abbreviated as DC50) reads method: comparing the grayscale values of Western blot bands from drug-treated samples with those from blank DMSO-treated controls, and identifying the drug concentration range at which the grayscale value is half that of the DMSO-treated control bands.
DC50 values can be calculated using ImageJ software to measure grayscale values of Western blot bands from drug-treated samples. The concentration-response curve is fitted to estimate the drug concentration corresponding to half the grayscale value.
Target protein remaining (%) refers to the percentage of target protein remaining in cells after treatment with protein degrader compounds.
Calculation method for target protein remaining (%): Use ImageJ software to measure grayscale values of Western blot bands from drug (protein degrader)-treated samples. The grayscale value of drug-treated bands is divided by that of internal control protein bands, and the resulting quotient is normalized to obtain the relative percentage of remaining target protein after protein degrader treatment.
Target protein degradation rate (%)=1−target protein remaining (%).

Row | Structure (SMILES) | IC50 [1] [nM] | Degradation of substrate protein ALK (substrate protein remaining %) [2]
1 | CCc1cc2c(cc1N1CCC(N3CCN(Cc4ccc5c(c4)CN(N4CCC(=O)NC4=O)C5=O)CC3)CC1)C(C)(C)c1[nH]c3cc(C#N)ccc3c1C2=O [GT-06822, 8-(4-(4-((2-(2,4-dioxotetrahydropyrimidin-1(2H)-yl)-1-oxoisoindolin-5-yl)methyl)piperazin-1-yl)piperidin-1-yl)-9-ethyl-6,6-dimethyl-11-oxo-6,11-dihydro-5H-benzo[b]carbazole-3-carbonitrile] | 10 to 50 | A (0%≤substrate protein remaining %≤80%)
2 | CCc1cc2c(cc1N1CCC(N3CCN(CC4CCN(c5ccc6c(c5)C(=O)N(N5CCC(=O)NC5=O)C6=O)CC4)CC3)CC1)C(C)(C)c1[nH]c3cc(C#N)ccc3c1C2=O [GT-06823, 8-(4-(4-((1-(2-(2,4-dioxotetrahydropyrimidin-1(2H)-yl)-1,3-dioxoisoindolin-5-yl)piperidin-4-yl)methyl)piperazin-1-yl)piperidin-1-yl)-9-ethyl-6,6-dimethyl-11-oxo-6,11-dihydro-5H-benzo[b]carbazole-3-carbonitrile] | 10 to 50 | A (0%≤substrate protein remaining %≤80%)
3 | CCc1cc2c(cc1N1CCC(N3CCN(CC4CCN(c5cccc6c5C(=O)N(N5CCC(=O)NC5=O)C6=O)CC4)CC3)CC1)C(C)(C)c1[nH]c3cc(C#N)ccc3c1C2=O [GT-07298, 8-(4-(4-((1-(2-(2,4-dioxotetrahydropyrimidin-1(2H)-yl)-1,3-dioxoisoindolin-4-yl)piperidin-4-yl)methyl)piperazin-1-yl)piperidin-1-yl)-9-ethyl-6,6-dimethyl-11-oxo-6,11-dihydro-5H-benzo[b]carbazole-3-carbonitrile] | 10 to 50 | A (0%≤substrate protein remaining %≤80%)
4 | CCc1cc2c(cc1N1CCN(Cc3ccc4c(c3)C(=O)N(N3CCC(=O)NC3=O)C4=O)CC1)C(C)(C)c1[nH]c3cc(C#N)ccc3c1C2=O [GT-07320, 8-(4-((2-(2,4-dioxotetrahydropyrimidin-1(2H)-yl)-1,3-dioxoisoindolin-5-yl)methyl)piperazin-1-yl)-9-ethyl-6,6-dimethyl-11-oxo-6,11-dihydro-5H-benzo[b]carbazole-3-carbonitrile] | 100 to 300 | A (0%≤substrate protein remaining %≤80%)
5 | CCc1cc2c(cc1N1CCN(CC3CCN(c4ccc5c(c4)C(=O)N(N4CCC(=O)NC4=O)C5=O)CC3)CC1)C(C)(C)c1[nH]c3cc(C#N)ccc3c1C2=O [GT-07321, 8-(4-((1-(2-(2,4-dioxotetrahydropyrimidin-1(2H)-yl)-1,3-dioxoisoindolin-5-yl)piperidin-4-yl)methyl)piperazin-1-yl)-9-ethyl-6,6-dimethyl-11-oxo-6,11-dihydro-5H-benzo[b]carbazole-3-carbonitrile] | 50 to 100 | A (0%≤substrate protein remaining %≤80%)
6 | CCc1cc2c(cc1N1CCN(CC3CCN(c4cccc5c4C(=O)N(N4CCC(=O)NC4=O)C5=O)CC3)CC1)C(C)(C)c1[nH]c3cc(C#N)ccc3c1C2=O [GT-07322, 8-(4-((1-(2-(2,4-dioxotetrahydropyrimidin-1(2H)-yl)-1,3-dioxoisoindolin-4-yl)piperidin-4-yl)methyl)piperazin-1-yl)-9-ethyl-6,6-dimethyl-11-oxo-6,11-dihydro-5H-benzo[b]carbazole-3-carbonitrile] | 10 to 50 | A (0%≤substrate protein remaining %≤80%)
7 | CCc1cc2c(cc1N1CCN(Cc3ccc4c(c3)CN(N3CCC(=O)NC3=O)C4=O)CC1)C(C)(C)c1[nH]c3cc(C#N)ccc3c1C2=O [GT-07340, 8-(4-((2-(2,4-dioxotetrahydropyrimidin-1(2H)-yl)-1-oxoisoindolin-5-yl)methyl)piperazin-1-yl)-9-ethyl-6,6-dimethyl-11-oxo-6,11-dihydro-5H-benzo[b]carbazole-3-carbonitrile] | 10 to 50 | A (0%≤substrate protein remaining %≤80%)
8 | COc1cc(N2CCN(Cc3ccc4c(c3)CN(N3CCC(=O)NC3=O)C4=O)CC2)ccc1Nc1ncc(Cl)c(Nc2ccccc2P(C)(C)=O)n1 [GT-07341, 1-(5-((4-(4-((5-chloro-4-((2-(dimethylphosphoryl)phenyl)amino)pyrimidin-2-yl)amino)-3-methoxyphenyl)piperazin-1-yl)methyl)-1-oxoisoindolin-2-yl)dihydropyrimidine-2,4 (1H,3H)-dione] | 10 to 50 | A (0%≤substrate protein remaining %≤80%)
9 | COc1cc(N2CCN(Cc3ccc4c(c3)C(=O)N(N3CCC(=O)NC3=O)C4=O)CC2)ccc1Nc1ncc(Cl)c(Nc2ccccc2P(C)(C)=O)n1 [GT-07342, 5-((4-(4-((5-chloro-4-((2-(dimethylphosphoryl)phenyl)amino)pyrimidin-2-yl)amino)-3-methoxyphenyl)piperazin-1-yl)methyl)-2-(2,4-dioxotetrahydropyrimidin-1(2H)-yl)isoindoline-1,3-dione] | 100 to 300 | A (0%≤substrate protein remaining %≤80%)
10 | COc1cc(N2CCN(CC3CCN(c4ccc5c(c4)C(=O)N(N4CCC(=O)NC4=O)C5=O)CC3)CC2)ccc1Nc1ncc(Cl)c(Nc2ccccc2P(C)(C)=O)n1 [GT-07343, 5-(4-((4-(4-((5-chloro-4-((2-(dimethylphosphoryl)phenyl)amino)pyrimidin-2-yl)amino)-3-methoxyphenyl)piperazin-1-yl)methyl)piperidin-1-yl)-2-(2,4-dioxotetrahydropyrimidin-1(2H)-yl)isoindoline-1,3-dione] | 50 to 100 | A (0%≤substrate protein remaining %≤80%)
11 | COc1cc(N2CCN(CC3CCN(c4cccc5c4C(=O)N(N4CCC(=O)NC4=O)C5=O)CC3)CC2)ccc1Nc1ncc(Cl)c(Nc2ccccc2P(C)(C)=O)n1 [GT-07344, 4-(4-((4-(4-((5-chloro-4-((2-(dimethylphosphoryl)phenyl)amino)pyrimidin-2-yl)amino)-3-methoxyphenyl)piperazin-1-yl)methyl)piperidin-1-yl)-2-(2,4-dioxotetrahydropyrimidin-1(2H)-yl)isoindoline-1,3-dione] | 50 to 100 | A (0%≤substrate protein remaining %≤80%)
12 | Cc1cc(Nc2ncc(Cl)c(Nc3ccccc3S(=O)(=O)C(C)C)n2)c(OC(C)C)cc1C1CCN(Cc2ccc3c(c2)CN(N2CCC(=O)NC2=O)C3=O)CC1 [GT-07362, 1-(5-((4-(4-((5-chloro-4-((2-(isopropylsulfonyl)phenyl)amino)pyrimidin-2-yl)amino)-5-isopropoxy-2-methylphenyl)piperidin-1-yl)methyl)-1-oxoisoindolin-2-yl)dihydropyrimidine-2,4 (1H,3H)-dione] | 10 to 50 | A (0%≤substrate protein remaining %≤80%)
13 | COc1cc(N2CCC(CN3CC4CCC(C3)N4c3ccc4c(c3)C(=O)N(N3CCC(=O)NC3=O)C4=O)CC2)ccc1Nc1ncc(Cl)c(Nc2ccccc2P(C)(C)=O)n1 [GT-08530, 5-(3-((1-(4-((5-chloro-4-((2-(dimethylphosphoryl)phenyl)amino)pyrimidin-2-yl)amino)-3-methoxyphenyl)piperidin-4-yl)methyl)-3,8-diazabicyclo[3.2.1]octan-8-yl)-2-(2,4-dioxotetrahydropyrimidin-1(2H)-yl)isoindoline-1,3-dione] | – | A (0%≤substrate protein remaining %≤80%)
